pKd: −log10 of the molar value.
biological target: Human DDB1 (Homo sapiens (Human), UniProt Q16531); assay: Surface plasmon resonance (SPR) binding assay to immobilized His-DDB1; details: SPR, steady state affinity model, 25° C.; read-out: Binding (DDB1 binder activities, Kd)
Description: The binding affinities of heterobifunctional compounds to DDB1 were determined by SPR assay. Purified His-DDB1 proteins were immobilized on a CM5 sensor chip, and a dose range of compound solutions were injected in multi-cycle kinetic format. Data were fit to steady state model and gave equivalent dissociation constants (KD).
Protein Expression and Purification. Human DDB1 (UniPro: Q16531) coding sequences were cloned into pFastBacHTB vector and were expressed in High5 cells using Bac-to-Bac baculovirus expression system (Thermo Fisher Scientific). […] DDB1 proteins were obtained from supernatant of cell lysates and purified through sequential application of Ni affinity (Ni-NTA column. Bio-Rad), and size-exclusion (Superdex 200 16/600GL column, GE Healthcare) column chromatography.
Surface plasmon resonance (SPR) binding assay. All SPR studies were performed on a Biacore X100 plus or T200 instrument (GE Healthcare). Immobilization of purified His-DDB1 was carried out at 25° C. using a CM5 sensor chip. The surface was pre-equilibrated in HBS-EP running buffer (10 mM HEPES, pH7.4, 150 mM NaCl, 3 mM EDTA, 0.05% P20), then activated with EDC/NHS. His-DDB1 proteins were immobilized by amine coupling to a density of 11,000-13,000 resonance units (RUs) on flow cell FC2, whereas flow cell FC1 was used as reference. Both DDB1 immobilized and reference surfaces were deactivated with 1M ethanolamine.
All interaction experiments were performed at 25° C. […] Compound Solutions were injected individually in multi-cycle kinetic format without regeneration (flow rate […], association time 120 s, dissociation time 120 s). Sensorgrams from reference surfaces and blank injections were subtracted from the raw data (double-referencing) and the data was solvent-corrected prior to analysis. All data were fit to steady state affinity model using Biacore Evaluation Software and gave equivalent dissociation constants (KD).

Human DDB1, sequence (Q16531 whole entry): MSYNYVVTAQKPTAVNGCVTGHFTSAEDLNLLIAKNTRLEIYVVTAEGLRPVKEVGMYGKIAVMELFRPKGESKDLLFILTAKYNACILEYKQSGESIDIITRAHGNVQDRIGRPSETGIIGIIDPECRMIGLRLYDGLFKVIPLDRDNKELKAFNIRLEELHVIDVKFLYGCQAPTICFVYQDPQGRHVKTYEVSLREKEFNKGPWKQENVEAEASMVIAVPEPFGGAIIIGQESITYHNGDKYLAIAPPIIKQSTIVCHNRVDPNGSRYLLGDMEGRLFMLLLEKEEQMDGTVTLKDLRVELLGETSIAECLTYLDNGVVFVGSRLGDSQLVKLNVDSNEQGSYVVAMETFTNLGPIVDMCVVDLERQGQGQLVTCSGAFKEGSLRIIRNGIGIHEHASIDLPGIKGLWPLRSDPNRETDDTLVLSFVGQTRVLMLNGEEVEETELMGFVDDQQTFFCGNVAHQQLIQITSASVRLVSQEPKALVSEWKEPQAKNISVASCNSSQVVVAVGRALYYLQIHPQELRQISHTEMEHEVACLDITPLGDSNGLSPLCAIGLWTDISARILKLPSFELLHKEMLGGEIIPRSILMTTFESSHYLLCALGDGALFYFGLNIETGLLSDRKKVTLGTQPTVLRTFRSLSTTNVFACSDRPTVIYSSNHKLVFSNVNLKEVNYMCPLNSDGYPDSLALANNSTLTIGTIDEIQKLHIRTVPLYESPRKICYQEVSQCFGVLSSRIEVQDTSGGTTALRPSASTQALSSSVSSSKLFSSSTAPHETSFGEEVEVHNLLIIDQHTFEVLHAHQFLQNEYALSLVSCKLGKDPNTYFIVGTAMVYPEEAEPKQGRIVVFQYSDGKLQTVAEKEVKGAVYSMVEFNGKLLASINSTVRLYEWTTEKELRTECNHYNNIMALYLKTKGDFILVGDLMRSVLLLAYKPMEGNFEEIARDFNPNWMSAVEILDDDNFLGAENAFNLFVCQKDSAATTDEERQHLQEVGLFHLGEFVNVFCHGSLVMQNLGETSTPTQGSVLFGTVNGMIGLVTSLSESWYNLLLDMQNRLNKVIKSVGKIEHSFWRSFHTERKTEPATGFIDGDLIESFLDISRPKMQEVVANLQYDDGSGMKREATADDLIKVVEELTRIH

Row | Molecule | pKd
1 | 2-Acetamido-3-butyramido-N-(5-nitrothiazol-2-yl)benzamide [B-146] | 4.00 to 4.70
2 | CC(=O)Oc1ccccc1C(=O)Nc1ncc([N+](=O)[O-])s1 [B-1, 2-((5-nitrothiazol-2-yl)carbamoyl)phenylacetate] | 4.00 to 4.70
3 | CNC(=O)c1ccccc1C(=O)Nc1ncc([N+](=O)[O-])s1 [B-5, N^1-Methyl-N^2-(5-nitrothiazol-2-yl)phthalamide] | < 4.00
4 | CCCCNc1ccc(C(=O)Nc2ncc([N+](=O)[O-])s2)c(OC(C)=O)c1 [B-17, 5-(Butylamino)-2-((5-nitrothiazol-2-yl)carbamoyl)phenyl acetate] | > 4.70
5 | CCCC(=O)Nc1ccc(C(=O)Nc2ncc([N+](=O)[O-])s2)c(OC(C)=O)c1 [B-21, 5-Butyramido-2-((5-nitrothiazol-2-yl)carbamoyl)phenyl acetate] | < 4.00
6 | CCCC(=O)Nc1cccc(OC(=O)CCC)c1C(=O)Nc1ncc([N+](=O)[O-])s1 [B-25, 3-Butyramido-2-((5-nitrothiazol-2-yl)carbamoyl)phenyl butyrate] | 4.00 to 4.70
7 | CC(=O)Nc1ccccc1C(=O)Nc1nc(C)c([N+](=O)[O-])s1 [B-27, 2-Acetamido-N-(4-methyl-5-nitrothiazol-2-yl)benzamide] | 4.00 to 4.70
8 | CC(=O)Nc1ccccc1C(=O)Nc1nc(Cl)c([N+](=O)[O-])s1 [B-29, 2-Acetamido-N-(4-chloro-5-nitrothiazol-2-yl)benzamide] | 4.00 to 4.70
9 | CC(=O)Nc1ccccc1C(=O)Nc1nc(Br)c([N+](=O)[O-])s1 [B-30, 2-acetamido-N-(4-bromo-5-nitrothiazol-2-yl)benzamide] | 4.00 to 4.70
10 | CC(=O)Nc1ccccc1C(=O)Nc1nc(C(F)(F)F)c([N+](=O)[O-])s1 [B-31, 2-Acetamido-N-(5-nitro-4-(trifluoromethyl)thiazol-2-yl)benzamide] | 4.00 to 4.70
11 | CC(=O)Nc1ccccc1C(=O)Nc1nc(C2CC2)c([N+](=O)[O-])s1 [B-32, 2-Acetamido-N-(4-cyclopropyl-5-nitrothiazol-2-yl)benzamide] | 4.00 to 4.70
12 | CC(=O)Nc1ccccc1C(=O)Nc1ncc(Cl)s1 [B-35, 2-Acetamido-N-(5-chlorothiazol-2-yl)benzamide] | 4.00 to 4.70
13 | CC(=O)Nc1ccccc1C(=O)Nc1ncc(F)s1 [B-36, 2-Acetamido-N-(5-fluorothiazol-2-yl)benzamide] | 4.00 to 4.70
14 | CC(=O)Nc1ccccc1C(=O)Nc1ncc(Br)s1 [B-37, 2-Acetamido-N-(5-bromothiazol-2-yl)benzamide] | < 4.00
15 | CC(=O)Nc1ccccc1C(=O)Nc1ncc(C#N)s1 [B-39, 2-acetamido-N-(5-cyanothiazol-2-yl)benzamide] | 4.00 to 4.70
16 | CC(=O)Nc1ccccc1C(=O)Nc1nc(C)c(Cl)s1 [B-40, 2-acetamido-N-(5-chloro-4-methylthiazol-2-yl)benzamide] | 4.00 to 4.70
17 | CC(=O)Nc1ccccc1C(=O)Nc1nccs1 [B-41, 2-Acetamido-N-(thiazol-2-yl)benzamide] | < 4.00
18 | CC(=O)Nc1ccccc1C(=O)Nc1ncc(C)s1 [B-42, 2-Acetamido-N-(5-methylthiazol-2-yl)benzamide] | 4.00 to 4.70
19 | CC(=O)Nc1ccccc1C(=O)Nc1ncc(C(C)C)s1 [B-43, 2-Acetamido-N-(5-isopropylthiazol-2-yl)benzamide] | 4.00 to 4.70
20 | CC(=O)Nc1ccccc1C(=O)Nc1nc(-c2ccccc2)cs1 [B-46, 2-acetamido-N-(4-phenylthiazol-2-yl)benzamide] | 4.00 to 4.70
21 | CC(=O)Nc1ccccc1C(=O)Nc1ncc(S(C)(=O)=O)s1 [B-47, 2-Acetamido-N-(5-(methylsulfonyl)thiazol-2-yl)benzamide] | < 4.00
22 | CC(=O)Nc1ccccc1C(=O)Nc1nc(S(C)(=O)=O)cs1 [B-48, 2-Acetamido-N-(4-(methylsulfonyl)thiazol-2-yl)benzamide] | < 4.00
23 | CC(=O)Nc1ccccc1C(=O)Nc1ccc([N+](=O)[O-])cn1 [B-53, 2-Acetamido-N-(5-nitropyridin-2-yl)benzamide] | 4.00 to 4.70
24 | CC(=O)Nc1ccccc1C(=O)Nc1ccc(Cl)cn1 [B-54, 2-Acetamido-N-(5-chloropyridin-2-yl)benzamide] | 4.00 to 4.70
25 | CC(=O)Nc1ccccc1C(=O)Nc1ccc(Br)cn1 [B-55, 2-Acetamido-N-(5-bromopyridin-2-yl)benzamide] | 4.00 to 4.70
26 | CC(=O)Nc1ccccc1C(=O)Nc1ncccn1 [B-56, 2-acetamido-N-(pyrimidin-2-yl)benzamide] | < 4.00
27 | CC(=O)Nc1ccccc1C(=O)Nc1ccncn1 [B-57, 2-acetamido-N-(pyrimidin-4-yl)benzamide] | 4.00 to 4.70
28 | CC(=O)Nc1ccccc1C(=O)Nc1ccc(Cl)cc1 [B-58, 2-Acetamido-N-(4-chlorophenyl)benzamide] | 4.00 to 4.70
29 | CC(=O)Nc1ccccc1C(=O)Nc1ccc(Br)cc1 [B-59, 2-Acetamido-N-(4-bromophenyl)benzamide] | 4.00 to 4.70

Results, then the molecule that gave them:

Row | pKd | Molecule
30 | 4.00 to 4.70 | O=C(Nc1ncc([N+](=O)[O-])s1)c1ccccc1O [B-2, 2-hydroxy-N-(5-nitrothiazol-2-yl)benzamide]
31 | 4.00 to 4.70 | O=C(Nc1ncc([N+](=O)[O-])s1)c1ccccc1 [B-3, N-(5-Nitrothiazol-2-yl)benzamide]
32 | > 4.70 | CC(=O)Nc1ccccc1C(=O)Nc1ncc([N+](=O)[O-])s1 [B-4, 2-Acetamido-N-(5-nitrothiazol-2-yl)benzamide]
33 | > 4.70 | CCNc1ccccc1C(=O)Nc1ncc([N+](=O)[O-])s1 [B-6]
34 | > 4.70 | CCOc1ccccc1C(=O)Nc1ncc([N+](=O)[O-])s1 [B-7, 2-Ethoxy-N-(5-nitrothiazol-2-yl)benzamide]
35 | > 4.70 | CC(=O)Oc1ccccc1C(=O)N(C)c1ncc([N+](=O)[O-])s1 [B-8, 2-(Methyl(5-nitrothiazol-2-yl)carbamoyl)phenyl acetate]
36 | 4.00 to 4.70 | CC(=O)Oc1ccccc1C(=O)Nc1nc(C)c([N+](=O)[O-])s1 [B-9, 2-((4-Methyl-5-nitrothiazol-2-yl)carbamoyl)phenyl acetate]
37 | 4.00 to 4.70 | O=C(Nc1ncc(Cl)s1)c1ccccc1O [B-10]
38 | 4.00 to 4.70 | CCCNC(=O)c1cccc(C(=O)Nc2ncc([N+](=O)[O-])s2)c1OC(C)=O [B-11, 2-((5-Nitrothiazol-2-yl)carbamoyl)-6-(propylcarbamoyl)phenyl acetate]
39 | 4.00 to 4.70 | CCCNC(=O)c1ccc(OC(C)=O)c(C(=O)Nc2ncc([N+](=O)[O-])s2)c1 [B-13, 2-((5-Nitrothiazol-2-yl)carbamoyl)-4-(propylcarbamoyl)phenyl acetate]
40 | 4.00 to 4.70 | CCCNC(=O)c1cccc(OC(C)=O)c1C(=O)Nc1ncc([N+](=O)[O-])s1 [B-14, 2-((5-Nitrothiazol-2-yl)carbamoyl)-3-(propylcarbamoyl)phenyl acetate]
41 | 4.00 to 4.70 | CCCNC(=O)c1cccc(C(=O)Nc2ncc([N+](=O)[O-])s2)c1O [B-15, 2-hydroxy-N^1-(5-nitrothiazol-2-yl)-N^3-propylisophthalamide]
42 | 4.00 to 4.70 | CCCCNc1ccc(OC(C)=O)c(C(=O)Nc2ncc([N+](=O)[O-])s2)c1 [B-18, 4-(butylamino)-2-((5-nitrothiazol-2-yl)carbamoyl)phenylacetate]
43 | 4.00 to 4.70 | CCCCNc1cccc(OC(C)=O)c1C(=O)Nc1ncc([N+](=O)[O-])s1 [B-19, 3-(Butylamino)-2-((5-nitrothiazol-2-yl)carbamoyl)phenyl acetate]
44 | 4.00 to 4.70 | CCCC(=O)Nc1ccc(OC(C)=O)c(C(=O)Nc2ncc([N+](=O)[O-])s2)c1 [B-22, 4-Butyramido-2-((5-nitrothiazol-2-yl)carbamoyl)phenyl acetate]
45 | 4.00 to 4.70 | CCCC(=O)Nc1cccc(OC(C)=O)c1C(=O)Nc1ncc([N+](=O)[O-])s1 [B-23, 3-Butyramido-2-((5-nitrothiazol-2-yl)carbamoyl)phenyl acetate]
46 | 4.00 to 4.70 | CCCC(=O)Nc1cccc(C(=O)Nc2ncc([N+](=O)[O-])s2)c1OC(=O)CCC [B-24, 2-Butyramido-6-((5-nitrothiazol-2-yl)carbamoyl)phenyl butyrate]
47 | > 4.70 | CC(=O)Nc1ccccc1C(=O)Nc1nc(C(C)C)c([N+](=O)[O-])s1 [B-33, 2-Acetamido-N-(4-isopropyl-5-nitrothiazol-2-yl)benzamide]
48 | > 4.70 | CC(=O)Nc1ccccc1C(=O)Nc1nc(-c2ccccc2)c([N+](=O)[O-])s1 [B-34, 2-acetamido-N-(5-nitro-4-phenylthiazol-2-yl)benzamide]
49 | > 4.70 | CC(=O)Nc1ccccc1C(=O)Nc1ncc(C(F)(F)F)s1 [B-38, 2-acetamido-N-(5-(trifluoromethyl)thiazol-2-yl)benzamide]
50 | > 4.70 | CC(=O)Nc1ccccc1C(=O)Nc1ncc(-c2ccccc2)s1 [B-45, 2-acetamido-N-(5-phenylthiazol-2-yl)benzamide]

same assay, conditions: read-out: Binding (DDB1 binder activities, Kd)

Row | Molecule | pKd
51 | CCCNC(=O)c1ccc(C(=O)Nc2ncc([N+](=O)[O-])s2)c(OC(C)=O)c1 [B-12, 2-((5-Nitrothiazol-2-yl)carbamoyl)-5-(propylcarbamoyl)phenyl acetate] | > 4.70

Source: patent US20240066136A1, “MODIFIED PROTEINS AND PROTEIN DEGRADERS” (Cullgen (Shanghai), Inc., priority 2020, published 2024)
